Experiment: Binding affinity against Carboxypeptidase A

Row | Structure (SMILES) | Ki
1 | O=C(O)C(Cc1ccccc1)NC/C(=N\O)c1ccccn1 (stereo unspecified) | 580 µM
2 | O=C(O)C(Cc1ccccc1)SCCSc1ccccc1 (stereo unspecified) | 670 µM
3 | O=C(Nc1ccccc1)C(CSCCS)Cc1ccccc1 (stereo unspecified) | 34 µM
4 | O=C(O)C(Cc1ccccc1)SCCS (stereo unspecified) | 21 µM
5 | CCCCCC(Cc1ccccc1)C(=O)O (stereo unspecified) | 620 µM
6 | O=C(O)C(CCc1ccccc1S)Cc1ccccc1 (stereo unspecified) | 5.8 µM
7 | NC(=O)C(CCSCCS)Cc1ccccc1 (stereo unspecified) | 92 µM
8 | O=C(O)C(C/C(=N\O)c1ccccn1)Cc1ccccc1 (stereo unspecified) | > 300 µM
9 | O=C(CC/C(=N\O)c1ccccn1)NC(Cc1ccccc1)C(=O)O (stereo unspecified) | > 300 µM
10 | O=C(O)CC(CSCCS)Cc1ccccc1 (stereo unspecified) | 19 µM
11 | O=C(O)C(CSCCSCc1ccccc1)Cc1ccccc1 (stereo unspecified) | 660 µM
12 | O=C(O)C(CSCCS)Cc1ccccc1 (stereo unspecified) | 4.2 µM
13 | NC(=O)C(CSCCS)Cc1ccccc1 (stereo unspecified) | 29 µM
14 | CCCSCC(Cc1ccccc1)C(=O)O (stereo unspecified) | 340 µM
15 | O=C(CC(Cc1ccccc1)C(=O)O)c1ccccn1 (stereo unspecified) | 82 µM
16 | O=C(NC(Cc1ccccc1)C(=O)O)c1cnccn1 (stereo unspecified) | 180 µM
17 | O=C(O)c1cccc(C(=O)NC(Cc2ccccc2)C(=O)O)n1 (stereo unspecified) | 790 µM
18 | O=C(NC(Cc1ccccc1)C(=O)O)c1ccccn1 (stereo unspecified) | 370 µM
19 | O=C(O)C(Cc1ccccc1)(Cc1ccccc1)SCCSc1ccccc1 | 450 µM
20 | O=C(O)C(CCCCS)Cc1ccccc1 (stereo unspecified) | 45 µM
21 | O=C(CC(Cc1ccccc1)C(=O)O)c1ccccc1S (stereo unspecified) | 4.4 µM

Source: ChEMBL document CHEMBL1128853, “Zn(II)-chelating inhibitors of carboxypeptidase A” (Bioorg Med Chem Lett, 1995)
